Reference: US20250320206A1, “STAT6 DEGRADERS” (Gilead Sciences, Inc., priority 2024, published 2025)

Target: T1, STAT6 (Homo sapiens, UniProt P42226)
T1 construct: These cells express endogenous STAT6; host or cells: HeLa LgBiT clone 4.14
T1 sequence (P42226 1-847): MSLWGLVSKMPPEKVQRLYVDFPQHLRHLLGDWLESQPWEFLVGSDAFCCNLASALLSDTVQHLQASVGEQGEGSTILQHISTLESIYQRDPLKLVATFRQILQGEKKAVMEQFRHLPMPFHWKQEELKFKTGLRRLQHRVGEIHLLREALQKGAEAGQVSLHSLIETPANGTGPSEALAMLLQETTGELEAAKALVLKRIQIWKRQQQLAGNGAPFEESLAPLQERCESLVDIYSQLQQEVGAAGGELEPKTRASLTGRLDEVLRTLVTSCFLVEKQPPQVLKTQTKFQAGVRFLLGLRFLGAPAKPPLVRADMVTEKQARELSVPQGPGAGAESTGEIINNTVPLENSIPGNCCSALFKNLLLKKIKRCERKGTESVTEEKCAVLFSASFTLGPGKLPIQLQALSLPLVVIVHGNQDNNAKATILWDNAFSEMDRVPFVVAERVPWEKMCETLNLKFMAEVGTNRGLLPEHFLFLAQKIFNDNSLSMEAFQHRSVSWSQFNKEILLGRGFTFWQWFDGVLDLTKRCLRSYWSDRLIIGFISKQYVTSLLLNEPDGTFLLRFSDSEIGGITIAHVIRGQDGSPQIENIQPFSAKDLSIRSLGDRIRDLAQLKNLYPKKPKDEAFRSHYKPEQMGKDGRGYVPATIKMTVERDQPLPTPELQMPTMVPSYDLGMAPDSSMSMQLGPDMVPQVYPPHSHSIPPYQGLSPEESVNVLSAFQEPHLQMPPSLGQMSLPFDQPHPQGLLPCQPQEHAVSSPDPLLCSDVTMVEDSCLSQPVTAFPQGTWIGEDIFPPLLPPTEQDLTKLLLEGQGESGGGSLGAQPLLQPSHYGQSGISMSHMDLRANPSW
Test: Stat6 Degrader Assay (HiBiT based, HeLa LgBiT clone 4.14)
Assay type: cell-based
Settings: HeLa LgBiT clone 4.14 HiBiT-STAT6, 4-24 h incubation; read-out: STAT6 degradation Emax
Method: This was a HiBit based assay. A HeLa cell line stably transfected with a small protein, LgBit (Large Bit) was obtained from Promega. These cells express endogenous STAT6. A small 11 amino acid gene sequence (HiBiT) was inserted in the STAT6 gene using CRISPR technology. Once STAT6 protein is expressed in the cells, the HiBiT sequence will bind the LgBit in the cells resulting in a functional NanoBiT protein, giving a luminescent tag to STAT6, see FIG. 2.
Single cell clones were prepared and the clone 4.14 was selected for the assay based on that clone showing high luminescence, high STAT6 phosphorylation upon stimulation with IL-4, and inhibition of luminescence when cells were treated with STAT6 siRNA.
HeLa LgBiT clone 4.14 cells were suspended in DMEM with 10% FCS, 1% Pen/Strep, Na-pyrovate and Hygromycin B, at a concentration of 1.25*105 cells pr mL. 5000 cells were added pr well of a 384 well plate and 20 nL of compound was added by Echo® liquid handler. NN6394A (terfenadine, a toxic compound) was added to control wells at 50 μM concentration to establish the assay window. In these wells the cells are dead which equals 100% degradation of STAT6.
After 4-24 h of incubation at 37° C. under 5% CO2/95% air, 5 μL substrate (Nano-GLO®) was added to the wells and the plates were centrifuged and incubated for 0.5 h.
The luminescence in the wells as a measure of non-degraded STAT6 was measured in a plate reader (BMG Pherastar FSX).
The dose-response curves for Examples 3u208, 3u246, 3u118, 3u119, 3u120, and 3u74 are shown in FIG. 1 (where percent degradation is plotted vs. test compound concentration in M on a log-scale).

| Emax [%] | Compound |
| --- | --- |
| 30 to 40 | CNc1ccn(-c2ccnc3c2cc(CN2CCC(c4c(F)cc(C(=O)N5CCC(CN6CCN(c7ccc8c(c7)C7(CC7)C(=O)N8[C@H]7CCC(=O)NC7=O)CC6)CC5)cc4F)CC2)n3C)c(=O)c1 (single isomer, unassigned) [Example 3u151] |
| 20 to 30 | CNc1cc(=O)n(-c2ccnc3c2cc([C@H](C)N2CC=C(c4c(C)cc(C(=O)N5CCC(CN6CCN(Cc7ccc8c(c7)n(C7CC7)c(=O)n8C7CCC(=O)NC7=O)C[C@@H]6C)CC5)cc4F)CC2)n3C)cc1OC (stereo partly drawn) [Example 3u134, 3-(3-cyclopropyl-5-(((S)-4-((1-(3-fluoro-4-(1-((S)-1-(4-(5-methoxy-4-(methylamino)-2-oxopyridin-1 (2H)-yl)-1-methyl-1H-pyrrolo[2,3-b]pyridin-2-yl)ethyl)-1,2,3,6-tetrahydropyridin-4-yl)-5-methylbenzoyl)piperidin-4-yl)methyl)-3-methylpiperazin-1-yl)methyl)-2-oxo-2,3-dihydro-1H-benzo[d]imidazol-1-yl)piperidine-2,6-dione] |

Same assay, conditions: HeLa LgBiT clone 4.14 HiBiT-STAT6, 4-24 h incubation; values given for compounds with >80% Emax; geometric mean; read-out: STAT6 degradation DC50

| DC50 [nM] | Compound |
| --- | --- |
| 0.9 | CNc1ccn(-c2ccnc3c2cc([C@H](C)N2CC=C(c4c(C)cc(C(=O)N5CCC(CN6CCN(Cc7cc8c(cc7F)n([C@H]7CCC(=O)NC7=O)c(=O)n8C7CC7)CC6)CC5)cc4F)CC2)n3C)c(=O)c1 (single isomer, unassigned) [Example 3u104] |
| 1.4 | CNc1ccn(-c2ccnc3c2cc([C@H](C)N2CC=C(c4c(C)cc(C(=O)N5CCC(CN6CCN(Cc7cc8c(cc7F)n([C@@H]7CCC(=O)NC7=O)c(=O)n8C7CC7)CC6)CC5)cc4F)CC2)n3C)c(=O)c1 (single isomer, unassigned) [Example 3u105] |
| 0.6 | CNc1ccn(-c2ccnc3c2cc([C@H](C)N2CC=C(c4c(C)cc(C(=O)N5CCC(CN6CCN(Cc7ccc8c(c7)n(C)c(=O)n8[C@H]7CCC(=O)NC7=O)CC6)CC5)cc4F)CC2)n3C)c(=O)c1 (single isomer, unassigned) [Example 3u156] |
| 0.5 | CNc1ccn(-c2ccnc3c2cc([C@H](C)N2CC=C(c4c(C)cc(C(=O)N5CCC(CN6CCN(Cc7ccc8c(c7)n(C7CC7)c(=O)n8[C@H]7CCC(=O)NC7=O)C[C@@H]6C)CC5)cc4F)CC2)n3C)c(=O)c1 (single isomer, unassigned) [Example 3u112] |
| 2.5 | CNc1ccn(-c2ccnc3c2cc([C@H](C)N2CC=C(c4c(C)cc(C(=O)N5CCC(CN6CCN(Cc7ccc8c(c7)C7(CCCC7)C(=O)N8C7CCC(=O)NC7=O)CC6)CC5)cc4F)CC2)n3C)c(=O)c1 (stereo partly drawn) [Example 3u110, 3-(5′-((4-((1-(3-fluoro-5-methyl-4-(1-((S)-1-(1-methyl-4-(4-(methylamino)-2-oxopyridin-1 (2H)-yl)-1H-pyrrolo[2,3-b]pyridin-2-yl)ethyl)-1,2,3,6-tetrahydropyridin-4-yl)benzoyl)piperidin-4-yl)methyl)piperazin-1-yl)methyl)-2′-oxospiro[cyclopentane-1,3′-indolin]-1′-yl)piperidine-2,6-dione] |

Second part, the compound before the results:

| Compound | DC50 [nM] |
| --- | --- |
| CNc1c(F)cn(-c2ccnc3c2cc([C@H](C)N2CC=C(c4c(C)cc(C(=O)N5CCC(CN6CCN(Cc7ccc8c(c7)C7(CC7)C(=O)N8C7CCC(=O)NC7=O)C[C@@H]6C)CC5)cc4F)CC2)n3C)c(=O)c1F (stereo partly drawn) [Example 3u4, 3-(5′-(((S)-4-((1-(4-(1-((S)-1-(4-(3,5-difluoro-4-(methylamino)-2-oxopyridin-1 (2H)-yl)-1-methyl-1H-pyrrolo[2,3-b]pyridin-2-yl)ethyl)-1,2,3,6-tetrahydropyridin-4-yl)-3-fluoro-5-methyl-benzoyl)-piperidin-4-yl)methyl)-3-methylpiperazin-1-yl)methyl)-2′-oxospiro[cyclopropane-1,3′-indolin]-1′-yl)piperidine-2,6-dione] | 4 |
| Cc1cc(C(=O)N2CCC(CN3CCN(Cc4ccc5c(c4)n(C)c(=O)n5[C@H]4CCC(=O)NC4=O)C[C@@H]3C)CC2)cc(F)c1C1=CCN(Cc2cc3c(-n4ccc5c(c4=O)CCN5)ccnc3n2C)CC1 (single isomer, unassigned) [Example 3u24] | 1.2 |
| CNc1ccn(-c2ccnc3c2cc([C@H](C)N2CC=C(c4c(C)cc(C(=O)N5CCn6c(nnc6C6CCN(Cc7ccc8c(c7)n(C)c(=O)n8C7CCC(=O)NC7=O)CC6)C5)cc4F)CC2)n3C)c(=O)c1 (stereo partly drawn) [Example 3u275, 3-(5-((4-(7-(3-fluoro-5-methyl-4-(1-((S)-1-(1-methyl-4-(4-(methylamino)-2-oxopyridin-1 (2H)-yl)-1H-pyrrolo[2,3-b]pyridin-2-yl)ethyl)-1,2,3,6-tetrahydropyridin-4-yl)benzoyl)-5,6,7,8-tetrahydro-[1,2,4]triazolo[4,3-a]pyrazin-3-yl)piperidin-1-yl)methyl)-3-methyl-2-oxo-2,3-dihydro-1H-benzo[d]imidazol-1-yl)piperidine-2,6-dione] | 57.4 |
| CNc1cc(=O)n(-c2ccnc3c2cc([C@H](C)N2CC=C(c4c(C)cc(C(=O)N5CCC(CC6(O)CCN(c7ccc8c(c7)C7(CC7)C(=O)N8C7CCC(=O)NC7=O)CC6)CC5)cc4F)CC2)n3C)cc1F (stereo partly drawn) [Example 3u70, 3-(5′-(4-((1-(3-fluoro-4-(1-((S)-1-(4-(5-fluoro-4-(methylamino)-2-oxopyridin-1 (2H)-yl)-1-methyl-1H-pyrrolo[2,3-b]pyridin-2-yl)ethyl)-1,2,3,6-tetrahydropyridin-4-yl)-5-methylbenzoyl)-piperidin-4-yl)methyl)-4-hydroxypiperidin-1-yl)-2′-oxospiro[cyclopropane-1,3′-indolin]-1′-yl)-piperidine-2,6-dione] | 5.8 |
| Cc1cc(C(=O)N2CCC(CN3CCN(Cc4ccc5c(c4)n(C4CC4)c(=O)n5C4CCC(=O)NC4=O)C[C@@H]3C)CC2)cc(F)c1C1=CCN([C@@H](C)c2cc3c(-n4ccc5c(c4=O)CCN5)ccnc3n2C)CC1 (stereo partly drawn) [Example 3u143, 3-(3-cyclopropyl-5-(((S)-4-((1-(3-fluoro-5-methyl-4-(1-((S)-1-(1-methyl-4-(4-oxo-1,2,3,4-tetrahydro-5H-pyrrolo[3,2-c]pyridin-5-yl)-1H-pyrrolo[2,3-b]pyridin-2-yl)ethyl)-1,2,3,6-tetrahydropyridin-4-yl)benzoyl)piperidin-4-yl)methyl)-3-methylpiperazin-1-yl)methyl)-2-oxo-2,3-dihydro-1H-benzo[d]imidazol-1-yl)piperidine-2,6-dione] | 0.7 |
| Cc1cc(C(=O)N2CCC(CN3CCN(Cc4cc5c(cc4F)n([C@@H]4CCC(=O)NC4=O)c(=O)n5C4CC4)C[C@@H]3C)CC2)cc(F)c1C1=CCN([C@@H](C)c2cc3c(-n4ccc5c(c4=O)CCN5)ccnc3n2C)CC1 (single isomer, unassigned) [Example 3u133] | 0.8 |
| CNc1ccn(-c2ccnc3c2cc([C@H](C)N2CC=C(c4c(C)cc(C(=O)N5CCC(CN6CCN(Cc7ccc8c(c7)C7(CC7)C(=O)N8C7CCC(=O)NC7=O)C[C@@H]6C)CC5)cc4F)CC2)n3C)c(=O)c1F (stereo partly drawn) [Example 3u114, 3-(5′-(((S)-4-((1-(3-fluoro-4-(1-((S)-1-(4-(3-fluoro-4-(methylamino)-2-oxopyridin-1 (2H)-yl)-1-methyl-1H-pyrrolo[2,3-b]pyridin-2-yl)ethyl)-1,2,3,6-tetrahydropyridin-4-yl)-5-methyl-benzoyl)piperidin-4-yl)methyl)-3-methylpiperazin-1-yl)methyl)-2′-oxospiro[cyclopropane-1,3′-indolin]-1′-yl)piperidine-2,6-dione] | 9.9 |
| Cc1cc(C(=O)N2CCC(CN3CCN(Cc4ccc5c(c4)n(C)c(=O)n5[C@@H]4CCC(=O)NC4=O)C[C@@H]3C)CC2)cc(F)c1C1=CCN([C@@H](C)c2cc3c(-n4ccc5c(c4=O)CCN5)ccnc3n2C)CC1 (single isomer, unassigned) [Example 3u139] | 0.2 |
